{
  "source": "ChEMBL document CHEMBL1136837",
  "about": "“Unified QSAR approach to antimicrobials. 4. Multi-target QSAR modeling and comparative multi-distance study of the giant components of antiviral drug-drug complex networks” (Bioorg Med Chem, 2009)",
  "key": {"Human rhinovirus sp.": {"test_system": "Human rhinovirus sp.", "experiment": "Antiviral activity against Human rhinovirus", "assay_type": "functional, organism-based"}, "Coxsackievirus": {"test_system": "Coxsackievirus", "experiment": "Antiviral activity against Coxsackievirus", "assay_type": "functional, organism-based"}, "Enterovirus": {"test_system": "Enterovirus", "experiment": "Antiviral activity against Enterovirus", "assay_type": "functional, organism-based"}, "Echovirus": {"test_system": "Echovirus", "experiment": "Antiviral activity against Echovirus", "assay_type": "functional, organism-based"}, "[1]": {"test_system": "Human immunodeficiency virus 1", "experiment": "Antiviral activity against HIV1", "assay_type": "functional, organism-based"}, "[2]": {"test_system": "unidentified influenza virus", "experiment": "Antiviral activity against influenza virus", "assay_type": "functional, organism-based"}, "Respirovirus muris": {"test_system": "Respirovirus muris", "experiment": "Antiviral activity against Sendai virus", "assay_type": "functional, organism-based"}, "Enterovirus C": {"test_system": "Enterovirus C", "experiment": "Antiviral activity against Poliovirus", "assay_type": "functional, organism-based"}, "Hepatitis C virus": {"test_system": "Hepatitis C virus", "experiment": "Antiviral activity against Hepatitis C virus c", "assay_type": "functional, organism-based, Hepacivirus hominis"}, "[3]": {"test_system": "Human parainfluenza virus 2", "experiment": "Antiviral activity against Human parainfluenza virus 2", "assay_type": "functional, organism-based", "details": "Human orthorubulavirus 2"}, "Human respirovirus 3": {"test_system": "Human respirovirus 3", "experiment": "Antiviral activity against Human parainfluenza virus 3", "assay_type": "functional, organism-based"}, "Human respirovirus 1": {"test_system": "Human respirovirus 1", "experiment": "Antiviral activity against Human parainfluenza virus 1", "assay_type": "functional, organism-based"}, "H2N2 subtype": {"test_system": "H2N2 subtype", "experiment": "Antiviral activity against influenza H2N2 virus", "assay_type": "functional, organism-based", "details": "Influenza A virus"}, "Monkeypox virus": {"test_system": "Monkeypox virus", "experiment": "Antiviral activity against Monkeypox virus", "assay_type": "functional, organism-based"}, "Human adenovirus 2": {"test_system": "Human adenovirus 2", "experiment": "Antiviral activity against Human adenovirus 2", "assay_type": "functional, organism-based", "details": "Human mastadenovirus C"}, "Influenza B virus": {"test_system": "Influenza B virus", "experiment": "Antiviral activity against influenza B virus", "assay_type": "functional, organism-based"}, "Camelpox virus": {"test_system": "Camelpox virus", "experiment": "Antiviral activity against Camelpox virus", "assay_type": "functional, organism-based"}, "Cowpox virus": {"test_system": "Cowpox virus", "experiment": "Antiviral activity against Cowpox virus", "assay_type": "functional, organism-based"}, "Vaccinia virus": {"test_system": "Vaccinia virus", "experiment": "Antiviral activity against Vaccinia virus", "assay_type": "functional, organism-based, Orthopoxvirus vaccinia", "details": "Orthopoxvirus vaccinia"}, "Influenza A virus": {"test_system": "Influenza A virus", "experiment": "Antiviral activity against influenza H1N1 virus", "assay_type": "functional, organism-based"}, "Influenza A virus H3N2": {"test_system": "Influenza A virus H3N2", "experiment": "Antiviral activity against influenza H3N2 virus", "assay_type": "functional, organism-based, H3N2 subtype"}},
  "data": [
    {"compound": "CCO/N=C/c1ccc(OCCC2CCN(c3ccc(Cl)nn3)CC2)cc1", "values": [
      {"measurement": "IC50", "setting": "Human rhinovirus sp.", "result": 0.026, "unit": "µM"},
      {"measurement": "IC50", "setting": "Coxsackievirus", "result": 825, "unit": "nM"},
      {"measurement": "IC50", "setting": "Enterovirus", "result": 1, "unit": "nM"},
      {"measurement": "IC50", "setting": "Echovirus", "result": 67, "unit": "nM"}
    ]},
    {"compound": "O=c1n(Cc2nc3ccccc3n2CCCCO)c2cnccc2n1C1CC1", "values": [
      {"measurement": "IC50", "setting": "[1]", "result": 200, "unit": "µM"},
      {"measurement": "IC50", "setting": "[2]", "result": 200, "unit": "µM"},
      {"measurement": "IC50", "setting": "Respirovirus muris", "result": 25, "unit": "µM"},
      {"measurement": "IC50", "setting": "Human rhinovirus sp.", "result": 200, "unit": "µM"},
      {"measurement": "IC50", "setting": "Enterovirus C", "result": 200, "unit": "µM"}
    ]},
    {"compound": "C=C[C@@H]1C[C@]1(NC(=O)[C@@H]1C[C@@H](Oc2cc(-c3ccccc3)nc3cc(OC)ccc23)CN1C(=O)[C@H](CC(C)C)NC(=O)OC(C)(C)C)C(=O)O", "values": [
      {"measurement": "IC50", "setting": "Hepatitis C virus", "result": 492, "unit": "nM"}
    ]},
    {"compound": "CC(C)C(=O)N[C@H]1[C@H]([C@H](O)[C@H](O)CO)OC(C(=O)O)=C[C@@H]1NS(=O)(=O)C(Cl)Cl", "values": [
      {"measurement": "IC50", "setting": "[3]", "result": 1900, "unit": "nM"},
      {"measurement": "IC50", "setting": "Human respirovirus 3", "result": 2000, "unit": "nM"},
      {"measurement": "IC50", "setting": "Respirovirus muris", "result": 1.8, "unit": "µM"},
      {"measurement": "IC50", "setting": "Human respirovirus 1", "result": 1200, "unit": "nM"}
    ]},
    {"compound": "NC(=O)c1ncn([C@@H]2O[C@H](CO)[C@@H](O)[C@H]2O)n1", "note": "[RIBAVIRIN]", "values": [
      {"measurement": "IC50", "setting": "H2N2 subtype", "result": 13.8, "unit": "µM"},
      {"measurement": "IC50", "setting": "Monkeypox virus", "result": 145, "unit": "µM"},
      {"measurement": "IC50", "setting": "Human adenovirus 2", "result": 100, "unit": "µM"},
      {"measurement": "IC50", "setting": "Influenza B virus", "result": 19, "unit": "µM"},
      {"measurement": "IC50", "setting": "Camelpox virus", "result": 215, "unit": "µM"},
      {"measurement": "IC50", "setting": "Cowpox virus", "result": 410, "unit": "µM"},
      {"measurement": "IC50", "setting": "Vaccinia virus", "result": 281, "unit": "µM"},
      {"measurement": "IC50", "setting": "Influenza A virus", "result": 7.7, "unit": "µM"},
      {"measurement": "IC50", "setting": "Influenza A virus H3N2", "result": 20, "unit": "µM"}
    ]}
  ]
}
